What was measured:
type II collagen gene = assay: Expression of gene encoding cartilage matrix protein (Northern hybridization), type II collagen; type: cell-based, rabbit; conditions: cultured 4 days, control = 100%
Procedure: (§1) Total RNA was extracted with ISOGEN (Nippon Gene Co., Ltd.) from rabbit knee articular chondrocytes cultured for 4 days according to the same manner as Experimental Example 1 in the presence of Compound (1) at a final concentration of 1×10^−4 M or 1×10^−5 M, and 15 μg of the total RNA was dissolved in 4.5 μl of a sterilized water. This solution was combined with 2 μl of 5×MOPS buffer, 3.5 μl of formaldehyde and 10 μl of formamide, and denatured at 90° C. for 15 minutes. The mixture was then electrophoresed on 1% agarose gel in the presence of formaldehyde. After completion of electrophoresis, RNA was transferred to a nylon membrane (Amersham Pharmacia Biotech) overnight by capillary method. The RNA was fixed to the nylon membrane by UV crosslinking and subjected to prehybridization at 60° C. for 2 hours in 50 ml of hybridization solution (6×SSC, 5×Denhart's solution, 0.5% SDS, 100 μg/ml heat-denatured salmon sperm DNA, free of 50% formamide).
(§2) Then, DNA probes of mouse type II collagen gene and human aggrecan. […] The nylon membrane was subjected to an autoradiography and exposed to X-ray film using LAS-1000 (Fuji Photo Film Co., Ltd.) A relative amount of each RNA was measured using Image Gause (Fuji Photo Film Co., Ltd.) and corrected with […] (internal RNA: internal control). The gene expression rate in test group was calculated by assuming that in control group as 100%.

aggrecan gene = assay: Expression of gene encoding cartilage matrix protein (Northern hybridization), aggrecan; type: cell-based, rabbit; conditions: cultured 4 days, control = 100%
Procedure: as §1, §2

articular chondrocytes = assay: Increase of matrix production of articular chondrocytes (Alcian blue staining of proteoglycan); type: cell-based, rabbit; conditions: for Proteoglycan Production (%): cultivation until day 5, vehicle = 100; for matrix production promoting activity: summary of Table 1
Procedure: Four NZW line rabbits (Kitayama Labes., Co Ltd.; male; 4-week-old) were sacrificed with bleeding under ether anesthesia and femur knee joints were collected aseptically. The collected knee joints were stored in phosphate buffer (pH 7.2) containing 0.2% glucose and only the cortical layer of knee joint was scrapped with a surgical knife into a 50 ml tube containing phosphate buffer (pH 7.2) containing 0.2% glucose. The collected knee joint cortical layer was cut into as small sections as possible on a dish with a razor and shaken at 37° C. for 15 minutes in phosphate buffer containing 0.2% glucose, supplied with 10× trypsin-ethylenediamine tetraacetic acid (EDTA)·4 Na salt (GIBCO; Cat. No. 15400-054) (50 ml, with 100 mg of trypsin and 40 mg of EDTA·4Na; pH 7.2). After shaking, the sample was centrifuged (1,400 rpm) to collect precipitates, and the precipitates were washed twice with 40 ml of phosphate buffer containing 0.2% glucose. The washed precipitates were combined with 40 ml of serum-free α-minimum essential medium (MEM: GIBCO; Cat: No. 12571-063) containing 60 mg of collagenase for cell diffusion (Wako Pure Chemical Industries, Ltd., 034-10533) and transferred to a 100 ml beaker containing a sterilized stirrer bar. Under stirring with the stirrer bar, the collagenase digestion was carried on for about 1 hour in a CO2 incubator at 37° C. Cartilage fragments were removed from the collagenase-treated cells using a […] Cell Strainer ([FALCON; Cat. No. 2340]). To the residual treated cells was added 10 ml of α-MEM medium containing 10% fetal calf serum (FCS), and centrifuged (1,400 rpm). The precipitates were washed with 10% FCS-αMEM medium twice, suspended in appropriate volume of the same medium and the resultant suspension was seeded into collagen type II (Wako Pure Chemical Industries, Ltd., 033-13901)-coated plates (48 well) at 20,000 cells/well. On the next day, the medium was replaced with 10% FCS-αMEM medium.
When cells reached to confluent after the medium exchange procedure above, the medium for test group was replaced with test compound-containing medium (including 0.1% dimethylsulfoxide as a vehicle). As a medium to which a test compound is added, 10% FCS-αMEM medium containing 0.2 mM ascorbic acid was used. The day on which test compound-containing medium was added for the first time was defined as “day 1”. The medium exchange with the same medium was again conducted at day 3 and the cultivation continued until day 5. As to the control group, the medium was exchanged at the same time using the same medium as the test group except that it is free of test compound (containing vehicle only), and the cultivation was carried out in the same manner. After completion of cultivation, the supernatant was removed from the culture medium. Cells were fixed by addition of 0.25 ml of neutral buffer containing 4% paraformaldehyde and incubation for 2 hours. Cells were washed three times with 1 ml of phosphate buffer (pH 7.2) and then stained for 4 hours with 0.1% Alcian blue 8GX (Sigma; A3157) dissolved in 0.1 M hydrochloric acid, which Alcian blue selectively stains cartilage matrix proteoglycan. After staining, the cells were washed 3 times with 1 ml of phosphate buffer (pH 7.2). Alcian blue which had stained cartilage matrix was dissolved with 0.25 ml of aqueous 6 M guanidine hydrochloride solution and a portion of the solution was used to determine the absorbance at 620 nm. The amounts of Alcian blue used for staining was calculated from the absorbance, which in turn was used for the estimation of the amount of matrix (proteoglycan).

[1] = tested on: cAMP hydrolytic PDE expressed in human articular cartilage (fraction Nos. 28-30); assay: Inhibition of cAMP hydrolyzing activity of fraction Nos. 28-30 of human articular cartilage extract; type: biochemical
Procedure: From the human knee articular cartilage was isolated on surgery of osteoarthrosis patients. Cartilage portion was scrapped with a surgery knife, washed with ice-cold phosphate buffer and stored at −80° C. The cartilage tissues were milled at −80° C. and then, scattered into pieces with homogenizer (Kinematica A.G., Polytron) in ice-cold homogenization buffer (20 mM Tris-HCl, pH 8.0, 1 mM ethylene glycol bis(β-aminoethylether)-N,N,N′,N′-tetraacetic acid, 1 mM dithiothreitol, 10 μg/ml leupeptin, 5 mM benzamidine, 0.2 mM phenylmethylsulfonyl fluoride, 1 mM sodium azide and 5 mM mercaptoethanol). The resultant homogenate was centrifuged (100,000×g; 30 minutes) to separate supernatant.
The above supernatant was loaded on a Mono Q Sepharose High Performance column (Amersham Pharmacia Biotech) equilibrated with elution buffer (20 mM Tris-HCl, pH 8.0, 1 mM ethylene glycol bis(β-aminoethylether)-N,N,N′,N′-tetraacetic acid, 1 mM dithiothreitol, 2 μg/ml leupeptin, 5 mM benzamidine). After washing the column with 20 ml of elution buffer, proteins were eluted into 1 ml fractions by aqueous sodium chloride solution (concentration gradient: 0 to 1000 mM, 70 ml) under ice-cooling. Each fraction was subjected to the determination of hydrolytic activity (PDE activity) toward cAMP and cGMP as a substrate.
The determination of PDE activity was performed by a radio-labeled nucleic acid assay. That is, the reaction was initiated by adding from 10 to 50 μl of elution fraction to 500 μl of assay buffer (50 mM Tris-HCl, pH 8.0, 5 mM magnesium chloride, 4 mM 2-mercaptoethanol) containing 1 μM of unlabeled cAMP and 22 nM of [^3H]-cAMP (Amersham Pharmacia Biotech).
After incubation at 37° C. for 30 minutes, the reaction was quenched by boiling for 1.5 minutes. Then, 100 μl of 1 mg/ml Crtalus atrox snake venom was added and incubated at 37° C. for 30 minutes. After addition of 500 μl of methanol, the reaction solution was subjected to Dowex column (1×8-400). To each eluate was added a liquid scintillation cocktail and the radio activity was measured.
The inhibitory activity of PDE4 inhibitor on fraction Nos. 28-30 containing potent cAMP hydrolyzing activity was measured according to the above-mentioned radio-labeled nucleic acid assay. The test compounds are Compound (1), Compound (2), Compound (11), Compound (44) and Compound (27).

[2] = tested on: rabbit articular chondrocytes; assay: Matrix production of rabbit articular chondrocytes in the presence of IL-1; type: cell-based; conditions: 1 × 10^−6 M; IL-1β 1 ng/ml; until day 3; vehicle = 100
Procedure: Four NZW line rabbits (Kitayama Labes., Co Ltd.; male; 4-week-old) were sacrificed with bleeding under ether anesthesia and knee joints of femur side were collected aseptically. Only the cortical layer was scrapped with a surgical knife in phosphate buffer (pH 7.2) containing 0.2% glucose and then placed into a 50 ml tube containing phosphate buffered saline containing 0.2% glucose. The collected knee joint cortical layer was cut into as small sections as possible on a dish with a razor, combined with 50 ml of phosphate buffer (100 mg trypsin, 40 mg EDTA·4 Na; pH 7.2) containing 0.2% glucose, supplied with 10× trypsin-ethylenediamine tetraacetic acid tetra sodium salt (EDTA·4Na: GIBCO; Cat. No. 15400-054) and shaken at 37° C. for 15 minutes.
After shaking, the precipitates were collected by centrifugation (1,400 rpm) and washed twice with 40 ml of phosphate buffer (pH 7.2) with 0.2% glucose.
To the washed precipitates was added 40 ml of α-minimum essential medium (MEM: GIBCO; Cat. No. 12571-063) containing 60 mg of collagenase for cell diffusion (Wako Pure Chemical Industries, Ltd., 034-10533) and antibiotics (200 U/ml penicillin G and 200 μg/ml streptomycin sulfate) (GIBCO; Cat. No. 15140-122), and the mixture was transferred to a 100 ml beaker containing a sterilized stirrer bar.
The incubation was conducted in a CO2 incubator at 37° C. for 30 minutes under stirring with a stirrer bar. Deoxyribonuclease I (Takara Shuzo Co., LTD.; Cat. No. 2210A) was then added at a concentration of 70 U/ml. The cultivation was conducted under the same condition for another 30 minutes. The supernatant of the culture was collected in another vessel and the remaining cartilage slips were then cultured again for about 30 minutes in freshly prepared α-minimum essential medium containing 60 mg of collagenase and 70 U/m1 deoxyribonuclease I.
To the previously collected culture supernatant and the last culture, from which cartilage slips had been removed using a 40 μm Cell Strainer (FALCON; Cat. No. 2340), 10 ml of α-minimum essential medium (MEM: GIBCO; Cat. No. 12571-063) containing 10% fetal calf serum (GIBCO Cat. No. 10099-141) and antibiotics (200 U/ml penicillin G and 200 μg/ml streptomycin sulfate) (GIBCO; Cat. No. 15140-122) was added and centrifuged (1,400 rpm, 10 minutes).
The precipitates were washed twice with α-minimum essential medium containing 10% fetal calf serum and antibiotics, suspended with an appropriate volume of the same medium, and seeded into 48-well plates (20,000 cells/well). […]
After staining, the cells were washed 3 times with 1 ml of phosphate buffer (pH 7.2). Alcian blue which had stained cartilage matrix was dissolved with 0.25 ml of 6 M aqueous guanidine hydrochloride solution and a portion of which was used to determine the absorbance at 620 nm. […]

Row | Structure (SMILES) | Proteoglycan Production (%) (articular chondrocytes; 1 × 10^−5 M) | matrix production promoting activity (articular chondrocytes) | Proteoglycan Production (%) (articular chondrocytes; 1 × 10^−6 M) | Proteoglycan Production (%) [2] [%] | also measured
1 | CCOc1cc2cc(CO)c(CO)c(-c3ccn(CCOC)c(=O)c3)c2cc1OCC [Compound (1)] | 133 | exert matrix production promoting activity |  |  | Expression of Type II collagen gene (%) (type II collagen gene; 10^−4 M): 406%; Expression of Type II collagen gene (%) (type II collagen gene; 10^−5 M): 278%; Expression of aggrecan gene (%) (aggrecan gene; 10^−4 M): 4262%; Expression of aggrecan gene (%) (aggrecan gene; 10^−5 M): 2693%; Proteoglycan Production (%) (articular chondrocytes; 1 × 10^−4 M): 144%; inhibition of the hydrolytic activity of the fraction ([1]; fraction Nos. 28-30, FIG. 4): inhibits the hydrolytic activity of the fraction strongly; IC50 for fraction(s) ([1]; method of Journal of Medicinal Chemistry, vol. 42, 1088-1099 (1999), values only in FIG. 4): consistent with the IC50 of PDE4 inhibition activity described in the same literature
2 | COc1ccc(/C(C)=N/OC(N)=O)cc1OC1CCCC1 [Compound (9)] | 138 | exert matrix production promoting activity | 128 |  | 
3 | COc1ccc([C@H](Cc2ccncc2)c2ccccc2)cc1OC1CCCC1 [Compound (21)] | 120 | exert matrix production promoting activity | 115 |  | 
4 | COc1ccc([C@]2(C#N)CC[C@H](C(=O)O)CC2)cc1OC1CCCC1 [Compound (27)] | 131 | exert matrix production promoting activity | 129 |  | 
5 | COc1cc2c(cc1OC)C(c1ccnc(-n3ccc4c(OCCN5CCOCC5)cccc4c3=O)c1)=N[C@H](CO)C2 [Compound No. 52] |  |  |  | 209 | 
6 | COc1cc2cc(CO)c(CO)c(-c3ccnc(-n4ccc5ccccc5c4=O)c3)c2cc1OC [Compound No. 56] |  |  |  | 168 | 

Reference: patent publication US8399466B2, “Composition for regenerative treatment of cartilage disease” (Mitsubishi Tanabe Pharma Corporation, priority 2001, dated 2013)
